# Key:
# [1] = test system: HT-29 cells; settings: Strickler, J. H., et al., read-out: EC50 in a HT-29 killing assay; cited from earlier work
# [2] = test system: MET expressing tumor cells; settings: reported, Strickler et al. 2016; cited from earlier work
# [3] = test system: HT-29 colon cancer tumor xenografts; assay: HT-29 mouse xenograft model; format: in vivo; settings: separate experiment(s), data not shown
# Procedure: Female athymic nude mice age 6- to 7-weeks old are available commercially, including from Harlan Laboratories (Indianapolis, Ind.). The mice are allowed to acclimate for one week and fed ad libitum on a normal low fat (4.5%) diet, which may be continued for the duration of the study. Tumor cells may be purchased from ATCC and may be cultured in cell culture media such as RPMI 1640 (Life Technologies) with L-glutamine, 25 mM HEPES supplemented with 10% FBS and 1 mM Na Pyruvate. Cells may be detached, washed with serum free medium and then resuspended at a final concentration of 50×10^6 cells/mL in serum free RPMI 1640. Tumor cells, approximately 5×10^6, may be injected subcutaneously in the rear flank of subject mice in a 1:1 mixture of serum free growth medium and Matrigel (Becton Dickinson, Bedford, Mass.). Tumor and body weight measurements may be performed twice weekly. Prior to treatment, mice can be randomized based on tumor size using a randomization algorithm. Treatments may be started when the average tumor volume reaches 100 mm^3. […]
# MET-ADCs and control hIgG4-MMAE may be prepared in Phosphate Buffered Saline (PBS) prior to dose. Tumor size may be determined by caliper measurements. […] Tumor volume data can be transformed to a log scale to equalize variance across time and treatment groups. Log volume data can be analyzed with two-way repeated measures ANOVA by time and treatment using SAS PROC MIXED software (SAS Institutes Inc, Cary, N.C.). Treatment groups are compared with the specified control group at each time point.
# [4] = test system: pan-AKT phosphorylation (pAKT) in Caki-1 cells; assay: Phosphor-AKT bioassay for MET agonist activity in Caki-1 cells; format: cell-based; settings: 5 μg/mL
# Procedure: Because it has been reported that MET agonistic antibodies increased hepatocyte proliferation and toxicity, a phosphor-AKT assay may be used to test MET-ADCs for MET agonist activity. Briefly stated, Caki-1 cells may be starved overnight in serum-free medium with 0.1% BSA and then treated with ADCs or naked MET antibodies at 5 μg/mL for the desired durations. Cell lysates may be analyzed for phosphorylation of pan-AKT by MSD ELISA, for example.
# [5] = test system: HT-29 cells; assay: HT-29 cell-killing assay; format: cell-based, human; settings: HT-29 cells
# Procedure: Therefore, the HT-29 cell line may be used to determine if test MET-ADCs can kill MET overexpressing tumor cells in vitro.
# Briefly described, 2-3×10^3 cells/well in 100 μL of culture medium may be plated in 96 well plates and incubated overnight at 37° C., 5% CO2. The MET-ADCs, MET antibody(ies), control MMAE or control hIgG4 conjugated to MMAE with cysteine conjugation antibody(ies) may be diluted 1:3 in serum-free culture medium starting from 100 nM (final) in 50 μL as 3× concentrations to the HT-29 cells. At the end of an additional 5-6 days of cell growth at 37° C. in a humidified incubator with 5% CO2, the plates may be equilibrated to room temperature for 30 minutes and 100 μL/well of CellTiter-Glo® reagent (Promega Corp., Fitchburg, Wis.) may then be added to assess cell viability. Cell viability may be determined by measuring luminescence.
# Various tumor cell lines and normal human cells may be tested for MET-ADC induced cell killing activity essentially as described above in Example 10 as assessed for MET receptor density. MET cell surface density was determined by indirect immunofluorescence staining of cell surface antigens on cultured cells using QIFIKIT (Dako). […] Following a forty-five minute incubation, cells may be incubated for 1 hour on ice with FITC conjugated antibody diluted 1:50 in FACS buffer. Then cells may be washed and receptor numbers may be determined by indirect immunofluorescence staining of the QIFIKIT beads using a Becton Dickinson LSRII flow cytometer.
Substance,EC50 [1] [nM],approximate threshold of MET cell surface molecules for sensitivity [2],inhibition of HT-29 tumor growth [3],MET agonist activity (induction of pan-AKT phosphorylation) [4],cell killing activity in HT-29 cells [5]
ABBV-399,9,"> 100,000",–,–,–
Emibetuzumab,–,–,did not inhibit HT-29 tumor growth,low to no agonist activity,no significant cell killing activity
MET-ADC #6: emibetuzumab conjugated with maleimidocaproyl-valine-citrulline-p-aminobenzoyloxycarbonyl-monomethyl auristatin E (Mal-C-vc-PABC-MMAE),–,–,–,significant increased agonist activity,less active than MET-ADC #1

# — patent US11167039B2, “MET antibody drug conjugates” (priority 2016, dated 2021)
